The source of these data is patent US20160102317A1, “PLANTS HAVING INCREASED TOLERANCE TO HERBICIDES” (BASF SE, priority 2013, published 2016).

pKi: −log10 of the molar value.

In assay [1] the test system is Wild-type Arabidopsis plants. Briefly: Arabidopsis growth inhibition in 48-well plates, tolerance factor. It counts as in vivo, Arabidopsis thaliana. Conditions: plant growth IC50 relative to wild-type plants; Wild-type line. The procedure:
Depending on the species, the plants are kept at 10-25° C. or 20-35° C. The test period extends over 3 weeks. During this time, the plants are tended and their response to the individual treatments is evaluated. Herbicide injury evaluations are taken at 2 and 3 weeks after treatment. Plant injury is rated on a scale of 0 to 9, 0 being no injury and 9 being complete death. Tolerance to HPPD-inhibiting herbicides can also be assessed in Arabidopsis. In this case transgenic Arabidopsis thaliana plants are assayed for improved tolerance to HPPD-inhibiting herbicides in 48-well plates. Seeds are surface sterilized by stirring for 5 min in ethanol+water (70+30 by volume), rinsing one time with ethanol+water (70+30 by volume) and two times with a sterile, deionized water. The seeds are resuspended in 0.1% agar dissolved in water (w/v). Four to five seeds per well are plated on solid nutrient medium consisting of half-strength Murashige Skoog nutrient solution, pH 5.8 (Murashige and Skoog (1962) Physiologia Plantarum 15: 473-497). […] Seven to ten days after seeding growth inhibition is evaluated by comparison to wild-type plants. Tolerance factor is calculated by dividing the plant growth IC50 value of transgenic plants containing a HPPD and/or HST sequence by that of wild-type plants.

The target in assay [2] is T1, Hordeum HPPD (SEQ ID NO:2), wild-type (Hordeum vulgare, UniProt O48604, A164G/R146V/R147D/R148G).
T1 construct: His (N); made in house; host or cells: E. coli BL21 (DE3)
T1 sequence (O48604 whole entry R146V/R147D/R148G/A164G): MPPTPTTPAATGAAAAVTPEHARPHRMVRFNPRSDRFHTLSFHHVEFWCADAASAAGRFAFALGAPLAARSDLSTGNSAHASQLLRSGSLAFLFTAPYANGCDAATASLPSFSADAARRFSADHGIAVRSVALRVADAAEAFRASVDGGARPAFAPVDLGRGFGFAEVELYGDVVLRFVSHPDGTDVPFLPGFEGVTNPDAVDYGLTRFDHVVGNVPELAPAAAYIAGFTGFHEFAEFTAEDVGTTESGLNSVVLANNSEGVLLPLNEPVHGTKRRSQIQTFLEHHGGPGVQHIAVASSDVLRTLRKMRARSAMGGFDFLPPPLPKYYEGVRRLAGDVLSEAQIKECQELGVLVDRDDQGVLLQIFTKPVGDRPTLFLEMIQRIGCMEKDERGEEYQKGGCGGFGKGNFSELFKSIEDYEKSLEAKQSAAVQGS
The assay is described as follows: HPPD activity assay (HGA by HPLC), wild-type enzyme characterization. The assay is classed as biochemical. The procedure:
(§1) HPPD produces homogentisic acid and CO2 from 4-hydroxyphenylpyruvate (4-HPP) and 02. The activity assay for HPPD is based on the analysis of homogentisic acid by reversed phase HPLC. The assay mixture can contain 150 mM potassium phosphate buffer pH 7.0, 50 mM L-ascorbic acid, 100 μM Catalase (Sigma-Aldrich), 1 μM FeSO4 and 0.2 units of purified HPPD enzyme in a total volume of 505 μl. 1 unit is defined as the amount of enzyme that is required to produce 1 nmol of HGA per minute at 20° C.
(§2) After a preincubation of 30 min the reaction is started by adding 4-HPP to a final concentration of 0.05 mM. The reaction is allowed to proceed for 45 min at room temperature. The reaction is stopped by the addition of 50 μl of 4.5 M phosphoric acid. The sample is filtered using a […] pore size PVDF filtration device.
(§3) 5 μl of the cleared sample is analyzed on an UPLC HSS T3 column (particle size 1.8 μm, dimensions 2.1×50 mm; Waters) by isocratic elution using 90% 20 mM NaH2PO4 pH 2.2, 10% methanol (v/v).
(§4) HGA is detected electrochemically at 750 mV (mode: DC; polarity: positive) and quantified by integrating peak areas (Empower software; Waters).
Inhibitors are dissolved in DMSO (dimethylsulfoxide) to a concentration of 0.5 mM. From this stock solution serial five-fold dilutions are prepared in DMSO, which are used in the assay. The respective inhibitor solution accounts for 1% of the assay volume. […] Activities are normalized by setting the uninhibited enzyme activity to 100%. IC50 values are calculated using non-linear regression.
Using methods which are described in the above examples or well known in the art, purified, recombinant wild-type HPPD enzymes are characterized with respect to their kinetic properties and sensitivity towards HPPD inhibiting herbicides. Apparent michaelis constants (Km) and maximal reaction velocities (Vmax) are calculated by non-linear regression with the software GraphPad Prism 5 (GraphPad Software, La Jolla, USA) using a substrate inhibition model. […] Weighted means (by standard error) of Km and IC50 values are calculated from at least three independent experiments.
Field performance of the HPPD enzyme, which is used as a herbicide tolerance trait, may depend not only on its lack of sensitivity towards HPPD inhibiting herbicides but also on its activity. To assess the potential performance of a herbicide tolerance trait a tolerance index (TI) is calculated using the following formula: […]
Easy comparison and ranking of each trait is enabled by normalizing tolerance indexes on Arabidopsis wild-type HPPD.

The test system of assay [3] is Arabidopsis overexpression line HvHPPD (SEQ ID: 2) L320H, P321A. Briefly: Arabidopsis growth inhibition in 48-well plates, tolerance factor. Particulars: plant growth IC50 of transgenic / wild-type plants. It counts as in vivo, Arabidopsis thaliana. The procedure: (§5) Arabidopsis thaliana is transformed with HPPD or HST sequences by floral dip method as described by McElver and Singh (WO 2008/124495). Transgenic Arabidopsis plants are subjected to TaqMan analysis for analysis of the number of integration loci.
(§6) Depending on the species, the plants are kept at 10-25° C. or 20-35° C. The test period extends over 3 weeks. During this time, the plants are tended and their response to the individual treatments is evaluated. Herbicide injury evaluations are taken at 2 and 3 weeks after treatment. Plant injury is rated on a scale of 0 to 9, 0 being no injury and 9 being complete death. Tolerance to HPPD-inhibiting herbicides can also be assessed in Arabidopsis. In this case transgenic Arabidopsis thaliana plants are assayed for improved tolerance to HPPD-inhibiting herbicides in 48-well plates. Seeds are surface sterilized by stirring for 5 min in ethanol+water (70+30 by volume), rinsing one time with ethanol+water (70+30 by volume) and two times with a sterile, deionized water. The seeds are resuspended in 0.1% agar dissolved in water (w/v). Four to five seeds per well are plated on solid nutrient medium consisting of half-strength Murashige Skoog nutrient solution, pH 5.8 (Murashige and Skoog (1962) Physiologia Plantarum 15: 473-497). Compounds are dissolved in dimethylsulfoxid (DMSO) and added to the medium prior solidification (final DMSO concentration 0.1%). Multi well plates are incubated in a growth chamber at 22° C., 75% relative humidity and 110 μmol Phot*m-2*s-1 with 14:10 h light:dark photoperiod. Seven to ten days after seeding growth inhibition is evaluated by comparison to wild-type plants. Tolerance factor is calculated by dividing the plant growth IC50 value of transgenic plants containing a HPPD and/or HST sequence by that of wild-type plants.

The test system of assay [4] is Arabidopsis overexpression line AtHPPD (Seq ID: 53) F381I. The description is as above. Conditions: plant growth IC50 of transgenic / wild-type plants. The assay is classed as in vivo, Arabidopsis thaliana. The procedure: as §5, §6
Assay [5] has as its system Arabidopsis overexpression line Picrophilus HPPD. The description is as above. The assay is classed as in vivo, Arabidopsis thaliana. Conditions: plant growth IC50 of transgenic / wild-type plants. As for the experimental part:
as §5, §6

The test system of assay [6] is Arabidopsis overexpression line AtHPPD (Seq ID: 53) M335H, P336G, E363Q. The assay is described as above. The assay is classed as in vivo, Arabidopsis thaliana. Particulars: plant growth IC50 of transgenic / wild-type plants. The procedure:
as §5, §6

For assay [7], the system named is Arabidopsis overexpression line HvHPPD (SEQ ID: 2). The assay is described as above. It counts as in vivo, Arabidopsis thaliana. Particulars: plant growth IC50 of transgenic / wild-type plants. As for the experimental part: as §5, §6
The next assay concerns HPPD Seq ID 67. Briefly: HPPD activity assay, tolerance index. The assay is classed as biochemical, Zea mays. Conditions: Table 12, normalized to reference SEQ ID NO:53. The procedure: as §1, §2, §3, §4
(§7) Inhibitors are dissolved in DMSO (dimethylsulfoxide) to a concentration of 0.5 mM. From this stock solution serial five-fold dilutions are prepared in DMSO, which are used in the assay. […] IC50 values are calculated using non-linear regression. […]

A further assay relates to HPPD Seq ID 69. The assay is described as follows: HPPD activity assay, tolerance index. The assay is classed as biochemical, Zea mays. Conditions: Table 12, normalized to reference SEQ ID NO:53. The procedure:
as §1, §2, §3, §4, §7

Setting [8] is: Table 16, Hordeum HPPD variant Wild-type.

With `Cc1c(C(=O)Nc2nnnn2C)ccc2c1C(=O)C(C)(C)CS2(=O)=O` [Inhibitor 2, 3,3,5-trimethyl-N-(1-methyltetrazol-5-yl)-1,1,4-trioxo-2H-thiochromene-6-carboxamide], the “Tolerance factor towards Inhibitor 2” value was 1 in [1]; 7.9 in assay [3]; 60.8 in assay [4]; 2.6 in [5]; 60.8 in assay [6]; 10.2 in assay [7]. The “TI Inhibitor 2 (normalized tolerance index)” value in assay [2] (setting [8]) came out at 1.

Take `COc1no[nH]/c1=N/C(=O)c1ccc2c(c1Cl)S(=O)(=O)CCC2(C)C` [Inhibitor 1, (NE)-8-chloro-N-(4-methoxy-1,2,5-oxadiazol-3-ylidene)-4,4-dimethyl-1,1-dioxo-2,3-dihydrothiochromene-7-carboxamide]: the “Tolerance factor towards Inhibitor 1” value amounted to 1 in assay [1]; 85 in assay [3]; 37.5 in assay [4]; 4.5 in [5]; 15.8 in [6]; 76 in assay [7]. In [2], this compound showed a pKi of 7.42. For the same compound, the “TI Inhibitor 1 (normalized tolerance index)” value in assay [2] (Table 12, Hordeum HPPD, normalized to reference SEQ ID NO:53) turned out to be 0.9; in [2] (setting [8]) it was 1; with HPPD Seq ID 67 it was 107.3; with HPPD Seq ID 69, 13.2.

Broadly, the pKi is the Ki on a negative log10 scale, so that one unit is a factor of ten.
